Assay results from ChEMBL document CHEMBL1201862, “PubChem BioAssay data set” (2004).
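Dose response: 5 concentrations. Exposure: 48 h. Format: 96-well plates. Endpoint: linear interpolation; highest concentration if not reached. GI50: concentration for 50% inhibition of growth.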 Activity calls are given as the source filed them. No stated cut-off is given here; in the data, active = GI50 up to about 1.1 µM and inactive = higher.

Key:
Experiment in all cases: NCI anticancer screen, dose series, 48 h
ACHN = tested on: ACHN
BT-549 = tested on: BT-549
COLO 205 = tested on: COLO 205
HCT-116 = tested on: HCT-116
HT-29 = tested on: HT-29
Hs-578T = tested on: Hs-578T
M14 = tested on: M14
NCI-H226 = tested on: NCI-H226
NCI/ADR-RES = tested on: NCI/ADR-RES
RPMI-8226 = tested on: RPMI-8226
SF-295 = tested on: SF-295
SK-MEL-28 = tested on: SK-MEL-28
SK-OV-3 = tested on: SK-OV-3
SNB-75 = tested on: SNB-75
SR = tested on: SR
T47D = tested on: T47D
TK-10 = tested on: TK-10
A549 = tested on: A549
SN12C = tested on: SN12C
NCI-H522 = tested on: NCI-H522

Measured: GI50

CCCCC(=O)c1ccc2ccccc2c1O
inactive: ACHN > 100 µM | BT-549 > 100 µM | COLO 205 88.9 µM | HCT-116 > 100 µM | HT-29 > 100 µM | Hs-578T > 100 µM | M14 > 100 µM | NCI-H226 > 100 µM | NCI/ADR-RES > 100 µM | RPMI-8226 35.5 µM | SF-295 > 100 µM | SK-MEL-28 > 100 µM | SK-OV-3 > 100 µM | SNB-75 > 100 µM | SR 62.5 µM | T47D 49.2 µM | TK-10 > 100 µM

CCN(CC)c1nc(NC2CCCCC2)c2nc(N(CC)CC)nc(NC3CCCCC3)c2n1
inactive: A549 > 100 µM | ACHN > 100 µM | BT-549 > 100 µM | HCT-116 > 100 µM | HT-29 > 100 µM | Hs-578T > 100 µM | M14 > 100 µM | NCI-H226 > 100 µM | NCI/ADR-RES > 100 µM | SF-295 > 100 µM | SK-MEL-28 > 100 µM | SK-OV-3 > 100 µM | SN12C > 100 µM | SR > 100 µM | T47D > 100 µM | TK-10 > 100 µM

CC(/C=C/c1ccccc1)=N\NC(=S)N/N=C(C)/C=C/c1ccccc1
inactive: A549 17.9 µM | ACHN 23.6 µM | BT-549 24.5 µM | COLO 205 19 µM | HCT-116 4.03 µM | HT-29 8.69 µM | Hs-578T > 100 µM | M14 17.2 µM | NCI-H226 21 µM | NCI-H522 25.3 µM | NCI/ADR-RES 16.1 µM | SF-295 20.7 µM | SK-MEL-28 15.4 µM | SK-OV-3 13.3 µM | SN12C 34.4 µM | SNB-75 22.5 µM | SR 5.93 µM | T47D 13.9 µM | TK-10 20.5 µM

O=C(C/N=C(\CN(c1ccccc1)c1ccccc1)Oc1ccc(Cl)cc1Cl)n1ccnc1
inactive: A549 > 100 µM | ACHN > 100 µM | BT-549 > 100 µM | COLO 205 > 100 µM | HCT-116 > 100 µM | HT-29 > 100 µM | Hs-578T > 100 µM | M14 > 100 µM | NCI-H226 > 100 µM | NCI/ADR-RES > 100 µM | RPMI-8226 > 100 µM | SF-295 > 100 µM | SK-MEL-28 > 100 µM | SK-OV-3 > 100 µM | SN12C > 100 µM | SNB-75 > 100 µM | SR > 100 µM | T47D > 100 µM | TK-10 > 100 µM

Cc1ccc(Cc2n[nH]c(=O)n2N2C(=O)c3ccccc3C2=O)cc1
inactive: A549 > 100 µM | ACHN > 100 µM | BT-549 > 100 µM | COLO 205 > 100 µM | HCT-116 > 100 µM | HT-29 > 100 µM | Hs-578T > 100 µM | M14 > 100 µM | NCI-H226 > 100 µM | NCI/ADR-RES > 100 µM | SF-295 > 100 µM | SK-MEL-28 > 100 µM | SN12C > 100 µM | SNB-75 91.4 µM | SR > 100 µM | T47D > 100 µM | TK-10 > 100 µM

COc1ccc(CC(O)CN2CCOCC2)cc1 (centres undefined)
inactive: A549 > 100 µM | ACHN > 100 µM | BT-549 > 100 µM | HCT-116 > 100 µM | HT-29 > 100 µM | Hs-578T > 100 µM | M14 > 100 µM | NCI-H226 > 100 µM | NCI-H522 > 100 µM | NCI/ADR-RES > 100 µM | SF-295 > 100 µM | SK-MEL-28 > 100 µM | SN12C > 100 µM | SR > 100 µM | T47D > 100 µM | TK-10 > 100 µM
